Results reported in PubChem BioAssay (NCI).
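Five concentrations, 48 hours, 96-well plates. At the GI50, growth is halved. TGI: total growth inhibition.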

Key:
Experiment in all cases: inhibition of tumour cell growth, NCI panel, 48 h
[1] = system: SK-OV-3 ovarian
[2] = system: A549 NSCLC
[3] = system: NCI-H226 lung
[4] = system: NCI/ADR-RES ovarian
[5] = system: LOX IMVI melanoma
[6] = system: MCF7 breast
[7] = system: K-562 leukemia
[8] = system: SK-MEL-2 melanoma
[9] = system: MALME-3M melanoma
[10] = system: SR leukemia
[11] = system: U251 CNS
[12] = system: UACC-62 melanoma
[13] = system: KM12 colon
[14] = system: SF-539 CNS
[15] = system: SW-620 colon
[16] = system: HOP-92 NSCLC
[17] = system: HOP-62 NSCLC
[18] = system: PC-3 prostate
[19] = system: MOLT-4 leukemia
[20] = system: SNB-19 CNS
[21] = system: MDA-MB-231 breast
[22] = system: OVCAR-5 ovarian
[23] = system: SF-268 CNS
[24] = system: HCT-116 colon
[25] = system: HCC-2998 colon
[26] = system: ACHN renal
[27] = system: HL-60(TB) leukemia
[28] = system: SK-MEL-28 melanoma
[29] = system: A498 renal
[30] = system: NCI-H23 lung
[31] = system: SNB-75 CNS
[32] = system: T-47D breast
[33] = system: SF-295 CNS
[34] = system: TK-10 renal
[35] = system: CAKI-1 renal
[36] = system: HCT-15 colon
[37] = system: CCRF-CEM leukemia
[38] = system: IGROV1 ovarian
[39] = system: M14 melanoma
[40] = system: OVCAR-3 ovarian
[41] = system: DU-145 prostate
[42] = system: RXF 393 renal
[43] = system: RPMI-8226 leukemia
[44] = system: UACC-257 melanoma
[45] = system: SN12C renal
[46] = system: 786-0 renal
[47] = system: OVCAR-4 ovarian
[48] = system: MDA-MB-435
[49] = system: SK-MEL-5 melanoma
[50] = system: COLO 205 colon
[51] = system: BT-549 breast
[52] = system: OVCAR-8 ovarian
[53] = system: HS 578T breast
[54] = system: NCI-H460 lung
[55] = system: UO-31 renal
[56] = system: NCI-H522 lung
[57] = system: HT29 colon

Cc1cc(N(CCCl)CCCl)ccc1C=Nc1ccc(-c2csc(Cc3ccccc3)n2)cc1
GI50 [1]: 11.8 µM | TGI [1]: 50.1 µM | GI50 [2]: 5.41 µM | TGI [2]: > 62.4 µM | GI50 [3]: 0.596 µM | TGI [3]: 21.3 µM | GI50 [4]: 5.18 µM | TGI [4]: 34 µM | GI50 [5]: 7.95 µM | TGI [5]: 20.8 µM | GI50 [6]: 4.66 µM | TGI [6]: 43.3 µM | GI50 [7]: 9.88 µM | TGI [7]: > 100 µM | GI50 [8]: 18.8 µM | TGI [8]: 40.3 µM | GI50 [9]: 16.4 µM | TGI [9]: 33.2 µM | GI50 [10]: 1.07 µM | TGI [10]: 73.2 µM | GI50 [11]: 7.82 µM | TGI [11]: 37.6 µM | GI50 [12]: 0.621 µM | TGI [12]: 16 µM | GI50 [13]: 15.8 µM | TGI [13]: 55.6 µM | GI50 [14]: 5.41 µM | TGI [14]: 29.4 µM | GI50 [15]: 18.1 µM | TGI [15]: > 100 µM | GI50 [16]: 1.53 µM | TGI [16]: 12.3 µM | GI50 [17]: 5.72 µM | TGI [17]: > 83 µM | GI50 [18]: 5.66 µM | TGI [18]: 44.2 µM | GI50 [19]: 2.22 µM | TGI [19]: 62 µM | GI50 [20]: 16.8 µM | TGI [20]: > 100 µM | GI50 [21]: 12.3 µM | TGI [21]: 49.5 µM | GI50 [22]: 8.91 µM | TGI [22]: > 67.1 µM | GI50 [23]: 7.03 µM | TGI [23]: > 85.4 µM | GI50 [24]: 13.6 µM | TGI [24]: 40.3 µM | GI50 [25]: 14.4 µM | TGI [25]: 33.3 µM | GI50 [26]: 5.35 µM | TGI [26]: > 91.3 µM | GI50 [27]: 1.85 µM | TGI [27]: > 46 µM | GI50 [28]: 17.9 µM | TGI [28]: 63.1 µM | GI50 [29]: 0.144 µM | TGI [29]: 1.13 µM | GI50 [30]: 8.96 µM | TGI [30]: 44.1 µM | GI50 [31]: 3.03 µM | TGI [31]: 33.5 µM | GI50 [32]: 2.82 µM | TGI [32]: 49.2 µM | GI50 [33]: 1.65 µM | TGI [33]: 50.6 µM | GI50 [34]: 19.9 µM | TGI [34]: 62.5 µM | GI50 [35]: 2.18 µM | TGI [35]: 30.5 µM | GI50 [36]: 15.2 µM | TGI [36]: > 79.9 µM | GI50 [37]: 3.01 µM | TGI [37]: > 86.3 µM | GI50 [38]: 24.2 µM | TGI [38]: > 100 µM | GI50 [39]: 15.7 µM | TGI [39]: 58.6 µM | GI50 [40]: 9.17 µM | TGI [40]: 27 µM | GI50 [41]: 7.98 µM | TGI [41]: 62.3 µM | GI50 [42]: 14.6 µM | TGI [42]: 71.3 µM | GI50 [43]: 8.26 µM | TGI [43]: 44 µM | GI50 [44]: 3.36 µM | TGI [44]: 29.3 µM | GI50 [45]: 3.85 µM | TGI [45]: 62.8 µM | GI50 [46]: 5.86 µM | TGI [46]: 49.1 µM | GI50 [47]: 8.01 µM | TGI [47]: > 100 µM | GI50 [48]: 12.4 µM | TGI [48]: 39.9 µM | GI50 [49]: 7.68 µM | TGI [49]: 21.2 µM | GI50 [50]: 13.1 µM | TGI [50]: 34.1 µM | GI50 [51]: 13.4 µM | TGI [51]: 42.4 µM | GI50 [52]: 10.2 µM | TGI [52]: 46.2 µM | GI50 [53]: 20.3 µM | TGI [53]: 83.7 µM | GI50 [54]: 0.475 µM | TGI [54]: 23.6 µM | GI50 [55]: 2.61 µM | TGI [55]: 26.8 µM | GI50 [56]: 11.7 µM | TGI [56]: 27 µM | GI50 [57]: 17.3 µM | TGI [57]: 47.2 µM
